In patent US20260137790A1, “MIXED VASOPRESSIN RECEPTOR AGONIST-ANTAGONIST FOR MODULATING MEAN ARTERIAL PRESSURE” (FERRING B.V., priority 2022, published 2026):
Like-named read-outs stand apart in the source and are kept apart here. Starred links: 1 amine or outer side, 2 acyl side, 3 side chain; linkers in the order of their positions; H or OH if unused. Positions of bridges follow the written chain, without caps; N, C: chain ends. Non-standard residues stand in square brackets, D forms with d. Residues, ends and D or L forms follow the SMILES beside them. Groups on a side chain read outwards from the residue. Chains are numbered I, II in the order given. *: point of attachment. X1 = CC(=O)NCCCC[C@H](NC(=O)CC[C@H](N)C(N)=O)C(=O)*; isoGln = NC(=O)[C@H](CCC(=O)[*:2])N[*:1]; εLys = N[C@@H](CCCCN[*:1])C(=O)[*:2]; Dab = NCC[C@H](N)C(=O)O; PhAc = O=C(Cc1ccccc1)*

Tests used:
[1] = SC (bolus) injection of high/low buffer compositions in rats: bioavailability, M1 formation; format: in vivo, rat; conditions: for bioavailability: rat, in vivo, sc, bioavailability of Compound 1, rats
[2] = human, in vivo; for AUC: M1 AUC; for Tmax: M1 tmax
Description: (§1) The trial comprised two treatment periods, treatment Period 1 and treatment Period 2 (see FIG. 1).
(§2) The study was conducted in two periods where the treatment in Period 1 was administered as an intravenous infusion, and the treatment in Period 2 was administered as subcutaneous injections. The trial comprised 5 ascending dose panels, each dose panel comprising 8 healthy subjects (6 active, 2 placebo). A new cohort of subjects was used for each dose panel.
(§3) If no safety concerns arose, as judged by the Investigator, the remaining subjects in that dose group were randomized and treated according to the randomization and protocol in a staggered dosing manner.
(§4) Treatment period 2: After a resting period of 2-18 days each subject received a once daily subcutaneous dose for 5 days of the same treatment as in Period 1. The dose was selected to prevent the exposure to exceed the intravenous exposure. […] A SRC evaluated the safety and tolerability of the compound after the completion of all subjects in the dose group.
(§5) The continuation of the same subjects from intravenous to subcutaneous administration was selected to get an as reliable as possible estimate of the bioavailability (F) in the small groups outlined.
(§6) The intravenous dose to the first dose panel was the lowest dose giving a clear signal of pharmacological activity in the preceding trial. The administration was performed by using a piston-driven syringe auto-infusion pump. The administered volume was recorded for each subject.
(§7) In Period 2, subjects received a once-daily subcutaneous injection for 5 days of the same treatment as in Period 1 at different locations on the abdomen (Table 5). The subcutaneous doses were selected based on data from a previous trial.

[3] = in vivo
Description: as §1, §2, §3, §4, §5, §6, §7

[4] = Metabolite M1 formation in healthy rats after IV bolus and SC (bolus) injection; format: in vivo; conditions: rat
Excerpt: A similar study in healthy rats was used to evaluate the differences between metabolite formation of Compound 1 after IV bolus and SC (bolus) injection.

[5] = system: methionine/choline-deficient (MCD) diet rats; test: Methionine/choline-deficient (MCD) diet rat model, MAP and portal pressure; conditions: for Δ MAP, mean / Δ PP, mean: 100 μg/kg IA
[6] = system: adult male cynomolgus monkeys; test: Telemetry MAP in healthy monkeys, Compound 1 versus terlipressin; format: in vivo, cynomolgus monkey; conditions: monkey
Description: The in-life portion of the study was performed over multiple dosing sessions using six non-naive adult male cynomolgus monkeys. Animals were previously (3-4 weeks before study start) instrumented with indwelling pressure telemetry devices and trained to be restrained in chairs. Animals had access to food and drinking water ad libitum.
Stock solutions were diluted in saline on the day of administration. Animals with indwelling pressure telemetry devices were trained to be restrained in chairs for 8-h periods.
On the day of administration, animals were restrained, and telemetric measurements were collected continuously starting ≥2 h before administration. Baseline values of arterial pressure (diastolic and systolic), heart rate, and body temperature were obtained. […].
The data reported herein were collected over 19 dosing sessions of four animals each, using a total of six monkeys. Animals were repeat dosed in a crossover design with at least one animal receiving vehicle for each round; the animal receiving vehicle was varied between rounds. A 48- to 72-h washout period was used between dosing sessions. Animals were observed by camera for ˜1 h before dosing (covering the baseline period) and up to 3 h after dosing.

SMILES: CC[C@H](C)[C@@H]1NC(=O)[C@H](Cc2ccccc2)NC(=O)[C@@H](N)CSSC[C@@H](C(=O)N2CCC[C@H]2C(=O)N[C@@H](CCNC(=O)[C@@H](N)CCCCNC(=O)[C@H](CCCCNC(C)=O)NC(=O)CC[C@H](NC(=O)[C@H](CCCNC(=N)N)NC(=O)[C@@H]2CCCN2C(=O)[C@H](C)NC(=O)[C@H](CC(N)=O)NC(=O)[C@H](CCC(N)=O)NC(=O)[C@H](Cc2ccccc2)NC(=O)[C@@H](Cc2ccc(OC)cc2)NC(=O)Cc2ccccc2)C(N)=O)C(=O)NCC(N)=O)NC(=O)[C@H](CC(N)=O)NC(=O)[C@H](CCC(N)=O)NC1=O [Compound 1] (I: H-CFIQNCP[Dab]G-NH2 / II: PhAc-[dY](Me)FQNAPR[isoGln]K(Ac)[εLys]; disulfide I:1-I:6; amide I:8-II:C)
- bioavailability ([1]; buffer about 10 mM): ~13%
- bioavailability ([1]; buffer about 100 mM): ~37%

SMILES: CC[C@H](C)[C@@H]1NC(=O)[C@H](Cc2ccccc2)NC(=O)[C@@H](N)CSSC[C@@H](C(=O)N2CCC[C@H]2C(=O)N[C@@H](CCNC(=O)[C@@H](N)CCCCNC(=O)[C@H](CCCCNC(C)=O)NC(=O)CC[C@H](N)C(N)=O)C(=O)NCC(N)=O)NC(=O)[C@H](CC(N)=O)NC(=O)[C@H](CCC(N)=O)NC1=O [Compound M1] (H-CFIQNCP[Dab]([εLys-X1])G-NH2; disulfide 1-6)
- Cmax ([2]; iv, 0.9 mg, M1 mean Cmax): 0.1 to 0.25 ng/mL
- half-life ([2]; iv, M1 harmonic mean terminal half-life): ~4 h
- AUC ([2]; sc, 0.1 mg, geometric mean): 2.51 ng·h/mL
- AUC ([2]; sc, 0.1 mg, max): 3.5 ng·h/mL
- AUC ([2]; sc, 0.1 mg, mean): 2.6 ng·h/mL
- AUC ([2]; sc, 0.1 mg, min): 1.71 ng·h/mL
- Cmax ([2]; sc, 0.1 mg, M1 Cmax, geometric mean): 0.9 ng/mL
- Cmax ([2]; sc, 0.1 mg, M1 Cmax, max): 1.28 ng/mL
- Cmax ([2]; sc, 0.1 mg, M1 Cmax, mean): 0.93 ng/mL
- Cmax ([2]; sc, 0.1 mg, M1 Cmax, min): 0.7 ng/mL
- half-life ([2]; sc, 0.1 mg, M1 t1/2, harmonic mean): 1.5 h
- half-life ([2]; sc, 0.1 mg, M1 t1/2, max): 2.1 h
- half-life ([2]; sc, 0.1 mg, M1 t1/2, mean): 1.6 h
- half-life ([2]; sc, 0.1 mg, M1 t1/2, min): 1 h
- Tmax ([2]; sc, 0.1 mg, max): 2 h
- Tmax ([2]; sc, 0.1 mg, mean): 0.8 h
- Tmax ([2]; sc, 0.1 mg, median): 0.5 h
- Tmax ([2]; sc, 0.1 mg, min): 0.3 h
- AUC ([2]; sc, 0.3 mg, geometric mean): 6.71 ng·h/mL
- AUC ([2]; sc, 0.3 mg, max): 10.2 ng·h/mL
- AUC ([2]; sc, 0.3 mg, mean): 7.55 ng·h/mL
- AUC ([2]; sc, 0.3 mg, min): 3.2 ng·h/mL
- AUC ([2]; sc, 0.3 mg, min, max (n 1)): 11.3 ng·h/mL
- Cmax ([2]; sc, 0.3 mg, M1 Cmax, geometric mean): 1.63 ng/mL
- Cmax ([2]; sc, 0.3 mg, M1 Cmax, max): 2.93 ng/mL
- Cmax ([2]; sc, 0.3 mg, M1 Cmax, mean): 2.01 ng/mL
- Cmax ([2]; sc, 0.3 mg, M1 Cmax, min): 0.6 ng/mL
- half-life ([2]; sc, 0.3 mg, M1 harmonic mean terminal half-life): 1.5 to 2 h
- half-life ([2]; sc, 0.3 mg, M1 t1/2, harmonic mean): 1.9 h
- half-life ([2]; sc, 0.3 mg, M1 t1/2, max): 2.4 h
- half-life ([2]; sc, 0.3 mg, M1 t1/2, mean): 2 h
- half-life ([2]; sc, 0.3 mg, M1 t1/2, min): 1.5 h
- half-life ([2]; sc, 0.3 mg, M1 t1/2, min, max (n 1)): 2.1 h
- Tmax ([2]; sc, 0.3 mg): 0.5 to 1.5 h
- Tmax ([2]; sc, 0.3 mg, max): 1.1 h
- Tmax ([2]; sc, 0.3 mg, mean): 0.8 h
- Tmax ([2]; sc, 0.3 mg, median): 1 h
- Tmax ([2]; sc, 0.3 mg, min): 0.5 h
- M1 time of Cmax ([3]; human, iv): approx. 5 hours
- M1 AUC, geometric mean ([3]; human, sc, 0.1 mg): 2.68 ng·h/mL
- M1 AUC, max ([3]; human, sc, 0.1 mg): 3.10 ng·h/mL
- M1 AUC, mean ([3]; human, sc, 0.1 mg): 2.70 ng·h/mL
- M1 AUC, min ([3]; human, sc, 0.1 mg): 2.39; h*ng/mL
- M1 Cmax, geometric mean ([3]; human, sc, 0.1 mg): 0.98 ng/mL
- M1 Cmax, max ([3]; human, sc, 0.1 mg): 1.27 ng/mL
- M1 Cmax, mean ([3]; human, sc, 0.1 mg): 1.01 ng/mL
- M1 Cmax, min ([3]; human, sc, 0.1 mg): 0.74; ng/mL
- M1 t1/2, harmonic mean ([3]; human, sc, 0.1 mg): 1.4 h
- M1 t1/2, max ([3]; human, sc, 0.1 mg): 2.2 h
- M1 t1/2, mean ([3]; human, sc, 0.1 mg): 1.6 h
- M1 t1/2, min ([3]; human, sc, 0.1 mg): 0.8; h
- M1 tmax, min ([3]; human, sc, 0.1 mg): 0.5; h
- M1 Cmax, geometric mean ([3]; human, sc, 0.3 mg): 1.76 ng/mL
- M1 Cmax, max ([3]; human, sc, 0.3 mg): 3.62 ng/mL
- M1 Cmax, mean ([3]; human, sc, 0.3 mg): 2.24 ng/mL
- M1 Cmax, min ([3]; human, sc, 0.3 mg): 0.86; ng/mL
- M1 t1/2, mean ([3]; human, sc, 0.3 mg): 2.1 h
- M1 tmax, mean ([3]; human, sc, 0.3 mg): 1.5 h
- M1 tmax, median ([3]; human, sc, 0.3 mg): 1.5 h
- M1 tmax, min ([3]; human, sc, 0.3 mg): 1.0; h
- formation of M1 ([3]; iv): 0-15%
- relative amount of M1 formed, more with 10 mM than with 100 mM buffer ([1]; rats): at least 15%
- relative amount of M1 formed, less with high vs lower buffer concentration ([1]; rats, in some cases): about 50%
- Compound 1 converted to M1 [4]: 80-90%

SMILES: NCCCC[C@H](NC(=O)[C@@H]1CCCN1C(=O)[C@@H]1CSSC[C@H](NC(=O)CNC(=O)CNC(=O)CN)C(=O)N[C@@H](Cc2ccc(O)cc2)C(=O)N[C@@H](Cc2ccccc2)C(=O)N[C@@H](CCC(N)=O)C(=O)N[C@@H](CC(N)=O)C(=O)N1)C(=O)NCC(N)=O [Terlipressin] (H-GGGCYFQNCPKG-NH2; disulfide 4-9)
- Δ MAP, mean ([5]; 0 min): 0.0 mmHg
- Δ PP, mean ([5]; 0 min): 0.0 mmHg
- Δ MAP, mean ([5]; 1 min): 6.1 mmHg
- Δ PP, mean ([5]; 1 min): −1.5 mmHg
- Δ MAP, mean ([5]; 2 min): 10.8 mmHg
- Δ PP, mean ([5]; 2 min): −2.1 mmHg
- Δ MAP, mean ([5]; 3 min): 18.1 mmHg
- Δ PP, mean ([5]; 3 min): −2.3 mmHg
- Δ MAP, mean ([5]; 5 min): 26.3 mmHg
- Δ PP, mean ([5]; 5 min): −2.4 mmHg
- Δ MAP, mean ([5]; 7 min): 30.1 mmHg
- Δ PP, mean ([5]; 7 min): −2.5 mmHg
- Δ MAP, mean ([5]; 10 min): 32.0 mmHg
- Δ PP, mean ([5]; 10 min): −2.4 mmHg
- Δ MAP, mean ([5]; 15 min): 32.9 mmHg
- Δ PP, mean ([5]; 15 min): −2.5 mmHg
- Δ MAP, mean ([5]; 20 min): 33.5 mmHg
- Δ PP, mean ([5]; 20 min): −2.6 mmHg
- Δ MAP, mean ([5]; 30 min): 31.7 mmHg
- Δ PP, mean ([5]; 30 min): −2.5 mmHg
- Δ MAP, mean ([5]; 60 min): 13.3 mmHg
- Δ PP, mean ([5]; 60 min): −2.8 mmHg
- Δ MAP, mean ([5]; 90 min): 5.2 mmHg
- Δ PP, mean ([5]; 90 min): −0.8 mmHg
- highest observed absolute MAP ([5]; 100 μg/kg intra-arterial): 116.6±4.1 mmHg
- maximum ΔMAP ([5]; 100 μg/kg intra-arterial): 33.5±2.6 mmHg
- maximum ΔPP ([5]; 100 μg/kg intra-arterial): −2.8±0.8 mmHg
- average increase in MAP between 30 min and 5 h ([6]; IV bolus 0.03 mg/kg): 6.0 mmHg
- maximum MAP increase from baseline ([6]; IV bolus 0.03 mg/kg): 29.6±3.6 mmHg
- average increase in MAP between 30 min and 5 h ([6]; IV bolus 0.09 mg/kg): 5.8 mmHg
- maximum MAP increase from baseline ([6]; IV bolus 0.09 mg/kg): 29.9±6.2 mmHg
- average increase in MAP between 30 min and 5 h ([6]; IV bolus 0.17 mg/kg): 14.6 mmHg
- maximum MAP increase from baseline ([6]; IV bolus 0.17 mg/kg): 50.8±5.6 mmHg
- average increase in MAP between 30 min and 5 h ([6]; IV bolus 0.34 mg/kg): 14.7 mmHg
- maximum MAP increase from baseline ([6]; IV bolus 0.34 mg/kg): 41.2±7.5 mmHg
- time of maximum MAP increase ([6]; IV bolus, across groups): 5 to 30 min
- time by which Δ MAP was negligible ([6]; IV bolus, all groups): 150 min
